Structures can show the parent of a compound that is named as a salt.
Assays:
Format in all cases: physicochemical
[1] = Light stability, Xenon light approx. 1200 kLuxh; conditions: for Decomposition products (%): Bulk (HPLC); for Change in XRPD: Bulk (XRPD)
Description: (§1) Crystalline forms A of the hydrochloride and tartrate salts of Compound I were prepared according to the methodology described in Examples 1 and 4. Stability against temperature and light were then measured as described below.
Light stability was tested by measuring decomposition and colour change following exposure to the sample to 1200 kiloLuxhours from a Xenon light.

[2] = Temperature stability, solid state, 1 week 80° C./75% relative humidity; conditions: for Decomposition products (%) / Discoloration / Change in XRPD: 1 week 80° C./75% relative humidity; for Change in XRPD: Bulk (XRPD)
Description: as §1
(§2) Temperature stability was tested by measuring decomposition and colour change caused by placing the samples in an airtight container for 1 week at 80° C. (in bulk form and as a 1% component in two mixtures) and in an identical container for 1 week at 80° C. and at a relative humidity of 75%. Where a change in XRPD was observed, the temperature of the phase transition was measured using differential scanning […] (DSC).

[3] = Temperature stability, solid state, 1 week 80° C., tight container; conditions: for resistance to decomposition at elevated temperatures: summary of Table 5
Description: as §1, §2

[4] = Hygroscopy by exposure to an atmosphere of 95% RH
Description: Crystalline forms A of the hydrochloride and tartrate salts of Compound I were prepared according to the methodology described in Examples 1 and 4.
The samples were tested for hygroscopy by exposure to an atmosphere of 95% RH.

[5] = 1% in mixture of Lactose 200 mesh (78.5%), corn starch (20%), aerosil 200 (0.5%), magnesium stearate (1%)
[6] = 1% in mixture of Mannitol 60 (50%), avicel PH 101 (43%), crospovidone (5%), aerosil (1%), magnesium stearate (1%)
[7] = 1 week 80° C., tight container, 1% in mixture of Lactose 200 mesh (78.5%), corn starch (20%), aerosil 200 (0.5%), magnesium stearate (1%)
[8] = 1 week 80° C., tight container, 1% in mixture of Mannitol 60 (50%), avicel PH 101 (43%), crospovidone (5%), aerosil (1%), magnesium stearate (1%)
[9] = Solid state, 1 week 80° C., tight container, Bulk (HPLC)
[10] = Solid state, 1 week 80° C., tight container, Bulk (XRPD, DSC)

Decomposition products (%) [1] | Change in XRPD [1] | Decomposition products (%) [2, 5] | Discoloration [2, 5] | Decomposition products (%) [2, 6] | Discoloration [2, 6] | Discoloration ([2]; Solid state, Bulk) | Decomposition products (%) ([2]; Solid state, Bulk (HPLC)) | Change in XRPD ([2]; Solid state) | Decomposition products (%) [3, 7] | Decomposition products (%) [3, 8] | Decomposition products (%) [3, 9] | Change in XRPD [3, 10] | Decomposition products (%) ([3]; Unstressed (1 week)) | resistance to decomposition at elevated temperatures [3] | hygroscopy [4] | moisture uptake [4] | SMILES | other results
1.1% | No change | 95.2% | Strong | 95.8% | Strong | Strong | 91.5% | Melted glass | 94.8% | 92.7% | 11.5% | No change | 1.1% | good resistance to decomposition | low hygroscopy | 0.61% | CCc1cc(/C(C)=N/OCc2ccc(C3CCCCC3)c(C(F)(F)F)c2)ccc1CN1CC(C(=O)O)C1 [Form A of hydrochloride salt, 1-(4-{1-[(E)-4-Cyclohexyl-3-trifluoromethyl-benzyloxyimino]-ethyl}-2-ethyl-benzyl)-azetidine-3-carboxylic acid] | Discoloration [3, 7]: Strong; Discoloration [3, 8]: Strong
0.8% | No change | 70.9% | Strong | 93.2% | Medium | Strong | 18.0% | Melted glass | 23.8% | 37.0% | 8.8% | Changed | 0.8% | good resistance to decomposition | slightly hygroscopic | 2.49% | CCc1cc(/C(C)=N/OCc2ccc(C3CCCCC3)c(C(F)(F)F)c2)ccc1CN1CC(C(=O)O)C1 [Form A of tartrate salt, 1-(4-{1-[(E)-4-Cyclohexyl-3-trifluoromethyl-benzyloxyimino]-ethyl}-2-ethyl-benzyl)-azetidine-3-carboxylic acid] | resistance to decomposition under conditions of high humidity and when mixed with representative pharmaceutical compositions ([2]; summary of Table 5, compared with the hydrochloride form): superior resistance to decomposition; temperature of the phase transition (DSC) ([3]; Solid state, 1 week 80° C., tight container, Bulk (XRPD, DSC), measured where XRPD changed): 136.3 °C

From patent publication US8486930B2, “Salts” (Novartis AG, priority 2008, dated 2013)
